Test results from BindingDB's records for patent US11814367 (Maze Therapeutics, 2023).

Experiments:
[1] = target: T1, Glycogen [starch] synthase, muscle (Homo sapiens, UniProt P13807); assay: Kinetic Biochemical Assay
T1 sequence (P13807 whole entry): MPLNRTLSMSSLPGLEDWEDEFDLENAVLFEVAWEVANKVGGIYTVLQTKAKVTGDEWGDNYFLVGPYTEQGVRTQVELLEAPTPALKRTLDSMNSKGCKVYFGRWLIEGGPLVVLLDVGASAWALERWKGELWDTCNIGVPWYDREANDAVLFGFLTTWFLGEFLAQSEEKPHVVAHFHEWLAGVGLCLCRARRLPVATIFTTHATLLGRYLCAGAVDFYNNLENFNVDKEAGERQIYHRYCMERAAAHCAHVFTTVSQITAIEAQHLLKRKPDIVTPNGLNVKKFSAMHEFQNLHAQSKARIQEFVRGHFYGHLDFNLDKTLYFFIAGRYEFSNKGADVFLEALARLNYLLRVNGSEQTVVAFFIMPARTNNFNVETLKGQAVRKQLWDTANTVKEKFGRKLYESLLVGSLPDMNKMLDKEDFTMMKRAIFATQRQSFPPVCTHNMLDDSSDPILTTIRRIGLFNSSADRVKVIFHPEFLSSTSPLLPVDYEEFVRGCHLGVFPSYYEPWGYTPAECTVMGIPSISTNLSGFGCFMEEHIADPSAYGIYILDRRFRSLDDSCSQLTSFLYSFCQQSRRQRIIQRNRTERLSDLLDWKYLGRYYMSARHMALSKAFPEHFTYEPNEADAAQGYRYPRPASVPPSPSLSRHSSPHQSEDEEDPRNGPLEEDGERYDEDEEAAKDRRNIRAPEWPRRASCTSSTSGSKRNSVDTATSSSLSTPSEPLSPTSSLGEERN
Procedure: The Assay Buffer contained 50 mM Tris pH 7.5, 2 mM MgCl2, and 100 mM KCl. Fresh stocks of BSA at a final concentration of 0.02% and TCEP at 1 mM were added before splitting buffer into hGYS1 buffer and substrate buffer. To the hGYS1 buffer, rabbit liver glycogen was added at a final concentration of 0.2% glycogen. Glucose-6-Phosphate was added at 1 mM, recombinant hGYS1/GN1 protein was added at 50 nM to the substrate buffer, phosphoenolpyruvate (PEP) was added at 2 mM, UDP-Glucose was added at 0.8 mM, NADH) was added at 0.6 mM, and Pyruvate Kinase/Lactate Dehydrogenase was added at 20 units/mL. The reaction was initiated by mixing hGYS1 buffer and substrate buffer at a 1:1 ratio. Both buffers were plated using a liquid dispensing device with hGYS1 buffer plated first followed by the substrate buffer. Plates were spun briefly to eliminate air bubbles and are immediately read in continuous mode at an absorbance of 340 nm, for 10 time points in one-minute increments, for a total of 10 minutes. The slope from these 10 time points was normalized to the positive and negative control wells.

[2] = target: T2, Glycogen [starch] synthase, liver (Homo sapiens, UniProt P54840); assay: The GYS2 coupled enzyme assay
T2 sequence (P54840 whole entry): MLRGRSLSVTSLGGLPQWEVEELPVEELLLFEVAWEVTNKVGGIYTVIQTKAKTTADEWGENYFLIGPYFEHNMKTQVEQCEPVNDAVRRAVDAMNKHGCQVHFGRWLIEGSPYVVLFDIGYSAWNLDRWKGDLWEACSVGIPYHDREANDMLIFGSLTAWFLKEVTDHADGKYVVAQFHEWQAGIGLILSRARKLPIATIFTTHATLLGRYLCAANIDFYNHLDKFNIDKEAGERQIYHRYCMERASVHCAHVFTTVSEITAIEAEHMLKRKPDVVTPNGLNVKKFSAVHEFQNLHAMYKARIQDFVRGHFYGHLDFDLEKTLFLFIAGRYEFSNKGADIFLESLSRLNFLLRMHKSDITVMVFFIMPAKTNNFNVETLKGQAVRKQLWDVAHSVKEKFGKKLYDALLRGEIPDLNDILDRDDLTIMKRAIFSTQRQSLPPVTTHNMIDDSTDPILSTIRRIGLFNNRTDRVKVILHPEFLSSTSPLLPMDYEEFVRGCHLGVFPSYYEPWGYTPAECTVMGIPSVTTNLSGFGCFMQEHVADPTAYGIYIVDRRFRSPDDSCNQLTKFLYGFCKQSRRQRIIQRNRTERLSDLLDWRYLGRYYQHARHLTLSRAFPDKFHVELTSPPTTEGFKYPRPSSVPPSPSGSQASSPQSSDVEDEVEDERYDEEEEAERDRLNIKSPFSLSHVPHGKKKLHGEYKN
Procedure: Compounds that inhibit the hGYS2 enzyme and, subsequently, the downstream conversion of NADH to NAD+, were tested using assay ready plates (black, clear bottom 384 well plates) in a final DMSO reaction volume of 2.5% DMSO. The Assay Buffer contained 50 mM Tris pH 7.5, 2 mM MgCl2, and 100 mM KCl. Fresh stocks of BSA at a final concentration of 0.02% and TCEP 1 mM were added before splitting buffer into hGYS2 buffer and substrate buffer. To the hGYS2 buffer, rabbit liver glycogen was added at a final concentration of 0.2% glycogen. Glucose-6-Phosphate was added at 2 mM, recombinant hGYS2/GN1 protein was added at 200 nM to the substrate buffer, phosphoenolpyruvate (PEP) was added at 2 mM, UDP-Glucose was added at 2 mM, NADH was added at 0.6 mM, and Pyruvate Kinase/Lactate Dehydrogenase was added at 20 units/mL. The reaction was initiated by mixing hGYS2 buffer and substrate buffer at a 1:1 ratio. Both buffers were plated using a liquid dispensing device with hGYS2 buffer plated first followed by the substrate buffer. Plates were spun briefly to eliminate air bubbles and are immediately read in continuous mode at an absorbance of 340 nm, for 10 time points in one-minute increments, for a total of 10 minutes. The slope from these 10 time points was normalized to the positive and negative control wells. The duplicate % inhibition values are then averaged and fit to a Hill equation for dose response according to the Levenberg-Marquardt algorithm with the Hill equation maximum set to 100 and the minimum set to 0.The results are shown in Table 4 below

IC50 [1] [nM]	IC50 [2] [nM]	SMILES
24	–	CC(C)c1ccc([C@@H](NC(=O)[C@@H]2C[C@@H](F)CN2C(=O)Cc2nc(C(F)(F)F)co2)c2ccccc2)nc1F [US11814367, Compound 801]
1780	–	CC(=O)N1C[C@H](F)C[C@H]1C(=O)NC(c1cccc(-c2cc(C)nn2C)c1)c1ccc(C(C)C)c(F)n1 (single isomer, unassigned) [US11814367, Compound 697]
309	> 100000	CC(=O)N1C[C@H](F)C[C@H]1C(=O)NC(c1ccccc1)c1ccc(C2CCC2)c(F)c1 (single isomer, unassigned) [US11814367, Compound 660]
252	–	COc1cccc(C(NC(=O)[C@@H]2C[C@@H](F)CN2C(C)=O)c2ccc(C(C)C)c(F)n2)c1 (single isomer, unassigned) [US11814367, Compound 654]
9	–	COc1nc(CC(=O)N2C[C@H](F)C[C@H]2C(=O)N[C@@H](c2ccccc2)c2ccc(C(C)C)c(F)n2)nn1C [US11814367, Compound 800]
7	> 100000	CC(C)c1ccc([C@@H](NC(=O)[C@@H]2C[C@@H](F)CN2C(=O)Cn2cc(N3CCC3)nn2)c2ccccc2)nc1F [US11814367, Compound 787]
1260	–	CC(C)c1ccc([C@@H](NC(=O)[C@@H]2C[C@@H](F)CN2C(=O)c2ccc3c(cnn3C)c2)c2ccccc2)cc1 [US11814367, Compound 702]
2160	–	O=C(N[C@H](c1ccccc1)c1ccc(C2CC2)c(F)n1)[C@@H]1C[C@@H](F)CN1C(=O)Cn1cnc2ccccc21 [US11814367, Compound 716]

The remaining lines, values behind:

SMILES	IC50 [1] [nM]	IC50 [2] [nM]
CC(C)c1ccc([C@@H](NC(=O)[C@@H]2C[C@@H](F)CN2C(=O)COC(=O)N(C)C)c2ccccc2)nc1 [US11814367, Compound 251]	53	> 100000
CC(=O)N1C[C@H](F)C[C@H]1C(=O)NC(c1ccc2cnn(C)c2c1)c1ccc(C(C)C)c(F)n1 (single isomer, unassigned) [US11814367, Compound 635]	82	–
CC(=O)N1C[C@H](F)C[C@H]1C(=O)NC(c1ccc2cn[nH]c2c1)c1ccc(C(C)C)c(F)n1 (single isomer, unassigned) [US11814367, Compound 634]	43	–
CC(=O)N1Cc2nccnc2CC1C(=O)N1C[C@H](F)C[C@H]1C(=O)N[C@@H](c1ccccc1)c1ccc(C(C)C)cc1 (some centres not stated) [US11814367, Compound 167]	116	> 100000
CC(C)c1ccc([C@@H](NC(=O)[C@@H]2C[C@@H](F)CN2C(=O)CNC(=O)N(C)C)c2ccccc2)cc1F [US11814367, Compound 361]	10	> 100000
O=C(N[C@@H](c1ccccc1)c1ccc(C2CC2)c(F)n1)[C@@H]1C[C@@H](F)CN1C(=O)CNC(=O)N1CCC1 [US11814367, Compound 305]	24	–
CC(=O)N1C[C@H](F)C[C@H]1C(=O)NC(c1ccc2cn(C)nc2c1)c1ccc(C(C)C)c(F)n1 (single isomer, unassigned) [US11814367, Compound 636]	71	–
NC(=O)NCC(=O)N1C[C@H](F)C[C@H]1C(=O)N[C@@H](c1ccccc1)c1ccc(C2CC2)c(F)n1 [US11814367, Compound 302]	67	> 100000
CC(=O)N1C[C@H](F)C[C@H]1C(=O)NC(c1ccc2cn[nH]c2c1)c1ccc(C2CC2)c(F)n1 (single isomer, unassigned) [US11814367, Compound 637]	453	–
CC(=O)N1C[C@H](F)C[C@H]1C(=O)NC(c1ccc(C(C)C)cc1)c1ccccc1N (single isomer, unassigned) [US11814367, Compound 642]	1330	> 100000
CC(C)c1ccc([C@@H](NC(=O)[C@@H]2C[C@@H](F)CN2C(=O)CC2COC2)c2ccccc2)cc1 [US11814367, Compound 218]	293	> 100000
